For 5 compounds, EC50 and CLint scaled results are on record in patent US10799507B2, “5-(7H-pyrrolo[2,3-d]pyrimidin-4-yl)-5-azaspiro[2.5]octane-8-carboxylic acid derivatives as novel JAK kinase inhibitors” (LEO Pharma A/S, priority 2017, dated 2020).

A value given as a limit tells only on which side of the number the result lay.

One data set has as its target JAK1 (Homo sapiens (Human), UniProt P23458). In words: JAK kinase assay (HTRF), JAK1. Type of data set: biochemical. Conditions: catalytic domain, ATP at Km (7 μM). The procedure, abridged: (§1)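 Catalytic-domain human JAK1 (GST-tagged, aa 850-1154) or His-tagged JAK2, baculovirus-expressed, phosphorylated 1 µM biotinylated TK peptide at Km ATP (JAK1 7 µM, 10 mM MgCl2, 50 nM SEB; JAK2 4 µM, 5 mM MgCl2) in pH 7.0 Hepes, 20-30 min RT. EDTA stop; overnight streptavidin-XL665/cryptate HTRF read.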
(In general: In TR-FRET formats the signal depends on donor and acceptor labels being close together.)

A further data set has as its target JAK2 (Homo sapiens (Human), UniProt O60674). In words: JAK kinase assay (HTRF), JAK2. Conditions: catalytic domain, ATP at Km (4 μM). Type of data set: biochemical. In short, it runs like this:
as §1

Another data set concerns the target JAK3 (Homo sapiens (Human), UniProt P52333). In words: JAK kinase assay (HTRF), JAK3. The data set is classed as biochemical. Conditions: catalytic domain, ATP at Km (2 μM). The procedure, abridged:
(§2)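 HTRF read-out of biotinylated TK peptide phosphorylation (1 μM) after a 20-30 min RT reaction in pH 7.0 Hepes buffer with 5 mM MgCl2 and 0.75% DMSO. JAK3 (His-tagged catalytic domain) used 2 μM ATP; TYK2 (GST-tagged, aa 871-1187) used 13 μM ATP plus 50 nM SEB, each at ATP Km.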

A further data set deals with TYK2 (Homo sapiens (Human), UniProt P29597). In words: JAK kinase assay (HTRF), TYK2. Type of data set: biochemical. Conditions: catalytic domain, ATP at Km (13 μM). The procedure, abridged:
as §2

Data set [1] is described as follows: in vitro metabolic stability in human liver microsomes. Conditions: human, liver microsomes, 0.5 μM compound, 0.5 mg/mL microsomes, NADPH, 40 min, 37° C.; read-out: Human liver microsome Clapp (apparent intrinsic clearance). Type of data set: in vitro ADME. In short, it runs like this:
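Compounds at 0.5 μM incubated in duplicate with human liver microsomes (0.5 mg/mL), phosphate buffer and NADPH at 37 °C for 40 min, sampled at 0, 5, 10, 20, 40 min into cold acetonitrile. LC-TOF-MS depletion gave elimination rate constant, from which apparent intrinsic clearance (Clapp) was calculated.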

Chain of JAK1 (P23458 850-1154): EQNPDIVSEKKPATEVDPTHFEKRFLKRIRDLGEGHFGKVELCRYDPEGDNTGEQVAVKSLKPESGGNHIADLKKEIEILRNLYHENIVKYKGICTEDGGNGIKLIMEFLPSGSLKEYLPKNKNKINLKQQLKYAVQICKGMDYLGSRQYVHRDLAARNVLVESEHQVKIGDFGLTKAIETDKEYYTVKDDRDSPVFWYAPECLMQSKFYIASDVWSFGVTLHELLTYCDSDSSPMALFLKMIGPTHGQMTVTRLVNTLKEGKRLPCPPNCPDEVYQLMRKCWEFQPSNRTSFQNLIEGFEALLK
Chain of JAK2 (O60674 849-1124): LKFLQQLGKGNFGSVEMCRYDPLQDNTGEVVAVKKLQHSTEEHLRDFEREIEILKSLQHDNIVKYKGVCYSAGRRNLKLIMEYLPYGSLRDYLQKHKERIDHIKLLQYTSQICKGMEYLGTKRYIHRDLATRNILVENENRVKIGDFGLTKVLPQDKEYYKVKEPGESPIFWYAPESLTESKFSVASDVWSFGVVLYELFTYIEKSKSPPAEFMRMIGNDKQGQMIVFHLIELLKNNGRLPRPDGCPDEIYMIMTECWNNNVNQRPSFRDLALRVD
Chain of JAK3 (P52333 822-1111): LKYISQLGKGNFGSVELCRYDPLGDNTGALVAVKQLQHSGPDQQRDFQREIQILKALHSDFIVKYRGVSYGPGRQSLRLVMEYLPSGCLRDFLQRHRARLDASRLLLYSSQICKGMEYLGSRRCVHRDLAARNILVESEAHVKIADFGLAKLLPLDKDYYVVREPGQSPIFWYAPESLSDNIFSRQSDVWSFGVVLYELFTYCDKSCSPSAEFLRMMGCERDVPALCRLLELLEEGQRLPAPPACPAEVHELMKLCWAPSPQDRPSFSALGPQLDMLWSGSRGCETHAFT
Chain of TYK2 (P29597 871-1187): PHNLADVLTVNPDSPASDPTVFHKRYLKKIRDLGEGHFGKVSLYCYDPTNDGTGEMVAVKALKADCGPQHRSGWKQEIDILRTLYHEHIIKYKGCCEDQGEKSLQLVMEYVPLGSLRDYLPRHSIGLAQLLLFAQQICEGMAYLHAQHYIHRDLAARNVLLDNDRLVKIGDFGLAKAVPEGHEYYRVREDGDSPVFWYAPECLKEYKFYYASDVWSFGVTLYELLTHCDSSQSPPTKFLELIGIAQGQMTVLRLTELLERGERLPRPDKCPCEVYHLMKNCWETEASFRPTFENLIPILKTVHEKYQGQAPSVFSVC

Broadly, the EC50 is the midpoint of the concentration-response curve. Read a low EC50 as a more potent agent. For `O=C(OCC1(CO)CCCC1)[C@H]1CCN(c2ncnc3[nH]ccc23)CC12CC2` [Example 159, [1-(hydroxymethyl)cyclopentyl]methyl (8S)-5-(7H-pyrrolo[2,3-d]pyrimidin-4-yl)-5-azaspiro[2.5]octane-8-carboxylate], the EC50 at JAK1 was 0.5 nM; at JAK2, 1.3 nM; at JAK3, 3.1 nM; on TYK2, 5.1 nM. The CLint scaled at 0.5 μM in data set [1] was greater than 200 mL/min/kg.
The like results for `O=C(OCC1(CO)CC(F)(F)C1)[C@H]1CCN(c2ncnc3[nH]ccc23)CC12CC2` [Example 160, [3,3-difluoro-1-(hydroxymethyl)cyclobutyl]methyl (8S)-5-(7H-pyrrolo[2,3-d]pyrimidin-4-yl)-5-azaspiro[2.5]octane-8-carboxylate] were, in that order, 0.3 nM, 0.8 nM, 1.8 nM, 3.7 nM and 121 mL/min/kg.
As for `O=C(OCC1(CO)CS(=O)(=O)C1)[C@H]1CCN(c2ncnc3[nH]ccc23)CC12CC2` [Example 162, [3-(hydroxymethyl)-1,1-dioxo-thietan-3-yl]methyl (8S)-5-(7H-pyrrolo[2,3-d]pyrimidin-4-yl)-5-azaspiro[2.5]octane-8-carboxylate], the EC50 on JAK1 amounted to 0.2 nM; at JAK2, 0.6 nM; on JAK3 it was 1.5 nM; on TYK2 it was 3.6 nM. The CLint scaled at 0.5 μM in data set [1] was less than 10 mL/min/kg.
The matching figures for `N#CCC1(COC(=O)[C@H]2CCN(c3ncnc4[nH]ccc34)CC23CC3)CC1` [Example 163, [1-(cyanomethyl)cyclopropyl]methyl (8S)-5-(7H-pyrrolo[2,3-d]pyrimidin-4-yl)-5-azaspiro[2.5]octane-8-carboxylate]: 3.1 nM, 3.8 nM, 13 nM, 25 nM and greater than 200 mL/min/kg.
The matching figures for `N#CCC1(COC(=O)C2CCN(c3ncnc4[nH]ccc34)CC23CC3)CC1` (stereo not shown) [Example 164, [1-(cyanomethyl)cyclopropyl]methyl 5-(7H-pyrrolo[2,3-d]pyrimidin-4-yl)-5-azaspiro[2.5]octane-8-carboxylate]: 4 nM, 5 nM, 19 nM, 70 nM and greater than 200 mL/min/kg.
